In patent US20100087658A1, “METHODS AND INTERMEDIATES FOR SYNTHESIS OF SELECTIVE DPP-IV INHIBITORS” (Phenomix Corporation, priority 1996, published 2010) one finds water solubility data, which are given here for 1 compound.

Each structure is given as a SMILES string.

For this data set the following is noted: crystalline form as isolated.

`O=C([O-])CN(C(=O)OCc1ccccc1)C1CCN(C(=O)OCc2ccccc2)C1.[Na+]` (stereo not shown) [II-Cbz-Na, sodium salt of (1-carbobenzyloxypyrrolidin-3-yl)-N-carbobenzyloxyglycine]: the water solubility entry is reported as “highly water-soluble”.
